Measurements from US7955425B2, “Ink composition for ink jet recording” (Seiko Epson Corporation, priority 2008, dated 2011).

Key:
[1] = Evaluation of solubility of poorly water-soluble alkane diol; format: physicochemical; details: for Ability to dissolve 1,2-octanediol: two-component aqueous alcohol solution with 10% by weight 1,2-octanediol and 10% by weight 1,2-hexanediol, FIG. 1
Description: An aqueous solution containing 10% by weight of 1,2-octanediol was prepared using 1,2-octanediol as a poorly water-soluble alkane diol.
Five alcohol solvents, 1,6-hexanediol (hereinafter referred to as 1,6-HED), 3-methyl-1,5-pentanediol (hereinafter referred to as 3 MPED), 1,5-pentanediol (hereinafter referred to as 1,5-PED), 1,2-hexanediol (hereinafter referred to as HED), and 2,2′-dimethylpropanediol (hereinafter referred to as 2 MPRD) were added to 10 g of the aqueous solution until the aqueous solution became transparent.
In place of the aqueous solution described above, an aqueous solution that contains 10% by weight of 1,2-octanediol as the poorly water-soluble alkane diol and 10% by weight of 1,2-hexanediol as the water-soluble 1,2-alkane diol was prepared, and the alcohol solvents were added to the aqueous solution until the aqueous solution became transparent, as described above.

[2] = Surface tension of aqueous solution; format: physicochemical

surface tension ([2]; 15% aqueous solution) [mN/m] | Structure (SMILES) | Ability to dissolve 1,2-octanediol [1] | further results
 | OCCCCCCO [1,6-HED, 1,6-hexanediol] | higher ability to dissolve 1,2-octanediol than the addition of HED alone | 
26.1 | CC(C)(C)C(O)CO (stereo not shown) [3,3-dimethyl-1,2-butanediol] |  | 
 | OCCCCCO [1,5-PED, 1,5-pentanediol] | higher ability to dissolve 1,2-octanediol than the addition of HED alone | 
 | CC(CCO)CCO [3 MPED, 3-methyl-1,5-pentanediol] | higher ability to dissolve 1,2-octanediol than the addition of HED alone | 
 | CC(CCO)CCO [3-methyl-1,5-butanediol] |  | surface tension ([2]; 10% aqueous solution): 45.8 mN/m
 | CC(C)(CO)CO [2 MPRD, 2,2′-dimethylpropanediol] | higher ability to dissolve 1,2-octanediol than the addition of HED alone | 
 | CC(CO)CO [2-methyl-1,3-propanediol] |  | surface tension ([2]; 10% aqueous solution): 57.5 mN/m
25.4 | CC(C)CC(O)CO (stereo not shown) [4-methyl 1,2-pentanediol] |  | 
 | CCCCCCC(O)CO (stereo not shown) [1,2-octanediol] |  | Solubility of 1,2-octanediol in water ([1]; aqueous solution containing 10% by weight of 1,2-octanediol): incompletely dissolved
26.7 | CCCCC(O)CO (stereo not shown) [1,2-hexanediol] |  | 
